{"source": "paper PMC7391767", "about": "“Molecular mechanisms underlying menthol binding and activation of TRPM8 ion channel” (Nature Communications, 2020)", "format_in_all_cases": "cell-based", "key": {"TRPM8 L843V": {"molecular_target": "T1, TRPM8 L843V (Mus musculus, UniProt Q8R4D5, L843V)", "T1 construct": "expressed in transfected cells; host or cells: HEK293T", "T1 sequence (Q8R4D5 whole entry L843V)": "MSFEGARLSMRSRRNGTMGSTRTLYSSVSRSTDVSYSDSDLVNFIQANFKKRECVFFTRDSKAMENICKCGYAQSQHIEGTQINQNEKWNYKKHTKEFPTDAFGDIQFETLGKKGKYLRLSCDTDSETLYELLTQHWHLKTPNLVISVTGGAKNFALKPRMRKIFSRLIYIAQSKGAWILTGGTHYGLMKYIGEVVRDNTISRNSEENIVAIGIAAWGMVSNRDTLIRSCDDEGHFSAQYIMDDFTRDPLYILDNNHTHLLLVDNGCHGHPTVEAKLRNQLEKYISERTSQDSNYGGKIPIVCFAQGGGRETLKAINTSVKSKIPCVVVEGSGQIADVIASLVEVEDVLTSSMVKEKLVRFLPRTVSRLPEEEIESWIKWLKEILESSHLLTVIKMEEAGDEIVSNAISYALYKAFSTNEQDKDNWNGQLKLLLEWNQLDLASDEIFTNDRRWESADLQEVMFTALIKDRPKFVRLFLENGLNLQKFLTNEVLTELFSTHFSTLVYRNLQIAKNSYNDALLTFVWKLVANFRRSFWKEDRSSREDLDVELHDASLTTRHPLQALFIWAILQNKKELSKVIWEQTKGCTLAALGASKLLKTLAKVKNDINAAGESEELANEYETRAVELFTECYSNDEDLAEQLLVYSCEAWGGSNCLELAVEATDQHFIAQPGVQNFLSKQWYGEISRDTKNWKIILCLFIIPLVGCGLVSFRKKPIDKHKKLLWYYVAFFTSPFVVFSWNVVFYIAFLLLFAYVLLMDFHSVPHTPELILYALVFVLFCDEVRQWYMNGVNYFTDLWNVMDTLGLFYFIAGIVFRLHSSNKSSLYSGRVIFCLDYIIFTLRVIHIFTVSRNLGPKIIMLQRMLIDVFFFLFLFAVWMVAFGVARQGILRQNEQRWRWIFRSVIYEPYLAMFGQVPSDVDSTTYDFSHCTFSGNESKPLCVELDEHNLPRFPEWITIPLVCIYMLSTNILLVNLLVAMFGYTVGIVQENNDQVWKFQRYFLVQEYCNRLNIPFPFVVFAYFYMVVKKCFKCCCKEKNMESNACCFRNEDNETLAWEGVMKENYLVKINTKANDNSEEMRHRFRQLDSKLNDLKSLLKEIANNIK", "assay": "whole-cell patch-clamp and thermodynamic mutant cycle analysis", "procedure": "(§1) Murine TRPM8 was used in this study. Point mutations were made by Fast Mutagenesis Kit V2 (SBS Genetech). Primers used to generate point mutations are summarized in Supplementary Table 2. All mutations were confirmed by sequencing.\n(§2) HEK293T cells purchased from Kunming Cell Bank, Kunming Institute of Zoology, Chinese Academy of Sciences (ATCC, CRL-3216) were cultured in Dulbecco’s modified Eagle’s medium supplemented with 20 mM L-glutamine and 10% fetal bovine serum. Cells were transiently transfected with cDNA constructs by Lipofectamine 3000 (Life Technologies) following the manufacturer’s protocol. Patch-clamp recordings were performed 1–2 days after transfection.\n(§3) Patch-clamp recordings were performed with a HEKA EPC10 amplifier controlled by PatchMaster software (HEKA). Whole-cell recordings were performed at ±80 mV. Patch pipettes were prepared from borosilicate glass and fire-polished to resistance of ~4 MΩ. For whole-cell recording, serial resistance was compensated by 60%. For single-channel recordings, patch pipettes were fire-polished to a higher resistance of 6-to-10 MΩ and then recorded in the inside-out configuration. To maximize the chance of obtaining a patch with only one channel, single-channel recordings were performed about 8 h after transfection. A solution with 130 mM NaCl, 10 mM glucose, 0.2 mM EDTA, and 3 mM HEPES (pH 7.2) was used in both bath and pipette for either whole-cell or single-channel recordings. Membrane potential was clamped at +80 mV for single-channel recordings. Current was sampled at 10 kHz and filtered at 2.9 kHz. All recordings were performed at room temperature (22 °C) with the maximum variation of 1 °C.\n(§4) Ligands such as menthol and its analogs were perfused to membrane patch by a gravity-driven system (RSC-200, Bio-Logic). Bath and ligand solution were delivered through separate tubes to minimize the mixing of solutions. Patch pipette was placed in front of the perfusion tube outlet.\n(§5) Data from whole-cell recordings were analyzed in Igor Pro version 6.1 (WaveMatrix). EC50 values were derived from fitting a Hill equation to the concentration–response relationship. Changes in EC50 by point mutation may be caused by either perturbation of ligand bind or channel gating or both. To distinguish these possibilities, dissociation constant (Kd) for ligand binding was estimated assuming the following gating scheme:1 C0↔KdC1↔LO, where L is the equilibrium constant for the final closed-to-open transition.\n(§6) To perform thermodynamic cycle analysis, Kd values of four channel-ligand combinations (WT channel, menthol: Kd _1; Mutant channel, menthol: Kd _2; WT channel, menthol analog: Kd _3; Mutant channel, menthol analog: Kd _4) were determined separately. The strength of coupling was determined by the coupling energy (kT multiplied by LnΩ, where k is the Boltzmann constant and T is temperature in Kelvin). LnΩ was calculated by Eq. (2) as[51]2 LnΩ=LnKd_1⋅Kd_4/Kd_2⋅Kd_3."}, "TRPM8 V775A": {"molecular_target": "T2, TRPM8 V775A (Mus musculus, UniProt Q8R4D5, V775A)", "T2 construct": "expressed in transfected cells; host or cells: HEK293T", "T2 sequence (Q8R4D5 whole entry V775A)": "as the sequence (Q8R4D5 whole entry L843V) above, with V775A, V843L counted along it", "assay": "whole-cell patch-clamp and thermodynamic mutant cycle analysis", "procedure": "as §1, §2, §3, §4, §5, §6"}, "TRPM8 I846V": {"molecular_target": "T3, TRPM8 I846V (Mus musculus, UniProt Q8R4D5, I846V)", "T3 construct": "expressed in transfected cells; host or cells: HEK293T", "T3 sequence (Q8R4D5 whole entry I846V)": "as the sequence (Q8R4D5 whole entry L843V) above, with V843L, I846V counted along it", "assay": "whole-cell patch-clamp and thermodynamic mutant cycle analysis", "procedure": "as §1, §2, §3, §4, §5, §6"}, "TRPM8 Y745F": {"molecular_target": "T4, TRPM8 Y745F (Mus musculus, UniProt Q8R4D5, Y745F)", "T4 construct": "expressed in transfected cells; host or cells: HEK293T", "T4 sequence (Q8R4D5 whole entry Y745F)": "as the sequence (Q8R4D5 whole entry L843V) above, with Y745F, V843L counted along it", "assay": "whole-cell patch-clamp and thermodynamic mutant cycle analysis", "procedure": "as §1, §2, §3, §4, §5, §6"}, "TRPM8 F839A": {"molecular_target": "T5, TRPM8 F839A (Mus musculus, UniProt Q8R4D5, F839A)", "T5 construct": "expressed in transfected cells; host or cells: HEK293T", "T5 sequence (Q8R4D5 whole entry F839A)": "as the sequence (Q8R4D5 whole entry L843V) above, with F839A, V843L counted along it", "assay": "whole-cell patch-clamp and thermodynamic mutant cycle analysis", "procedure": "as §1, §2, §3, §4, §5, §6"}, "TRPM8 L843A": {"molecular_target": "T6, TRPM8 L843A (Mus musculus, UniProt Q8R4D5, L843A)", "T6 construct": "expressed in transfected cells; host or cells: HEK293T", "T6 sequence (Q8R4D5 whole entry L843A)": "as the sequence (Q8R4D5 whole entry L843V) above, with V843A counted along it", "assay": "whole-cell patch-clamp and thermodynamic mutant cycle analysis", "procedure": "as §1, §2, §3, §4, §5, §6"}, "TRPM8 L843I": {"molecular_target": "T7, TRPM8 L843I (Mus musculus, UniProt Q8R4D5, L843I)", "T7 construct": "expressed in transfected cells; host or cells: HEK293T", "T7 sequence (Q8R4D5 whole entry L843I)": "as the sequence (Q8R4D5 whole entry L843V) above, with V843I counted along it", "assay": "whole-cell patch-clamp and thermodynamic mutant cycle analysis", "procedure": "as §1, §2, §3, §4, §5, §6"}, "wild-type TRPM8 [1]": {"molecular_target": "T8, wild-type TRPM8 (Mus musculus, UniProt Q8R4D5)", "T8 construct": "expressed in transfected cells; host or cells: HEK293T", "T8 sequence (Q8R4D5 whole entry)": "as the sequence (Q8R4D5 whole entry L843V) above, with V843L counted along it", "assay": "open probability from noise analysis of macroscopic current and single-channel recordings", "conditions": "wild-type TRPM8; near saturating concentration (menthol 500 µM)", "procedure": "as §3\nFrom single-channel recordings, the open probability (Po) was calculated after events detection with a hidden Markov approach in the software QuB[49] (http://www.qub.buffalo.edu/). A dead time of 0.32 ms was imposed. As a complementary approach, Po was also estimated from noise analysis[52] of whole-cell recordings. Briefly, the mean current amplitude (I), the squared deviations in current amplitude from the mean value (σ^2), and the single-channel current (i) were measured experimentally from a membrane patch of ion channels. Then the number of ion channels clamped in that patch (N) was determined as3 N=I^2/i⋅I−σ^2.\nThe maximum current when each of ion channel is at the open state with a Po of 1 is equal to i × N. Then the open probability was calculated as the ratio between the measured macroscopic current and the maximum current calculated by noise analysis. To estimate channel conductance, current amplitude was estimated from all-point histogram of single-channel recordings."}, "wild-type TRPM8 [2]": {"molecular_target": "T8, wild-type TRPM8", "assay": "whole-cell patch-clamp recording of ligand activation", "conditions": "WT", "procedure": "Murine TRPM8 was used in this study. Point mutations were made by Fast Mutagenesis Kit V2 (SBS Genetech). Primers used to generate point mutations are summarized in Supplementary Table 2.\nCells were transiently transfected with cDNA constructs by Lipofectamine 3000 (Life Technologies) following the manufacturer’s protocol. Patch-clamp recordings were performed 1–2 days after transfection.\nas §3, §4\nas §5, with “Changes in EC50 by point mutation may be caused by either perturbation of ligand bind or channel gating or both.” left out"}, "[3]": {"conditions": "mutant cycle menthol vs labelled analog"}}, "note": "Several values for one entry are separate records, joined by “and”; a condition that tells them apart may be missing. Identical values can stand only once. Like-named read-outs stand apart in the source and are kept apart here."}
{"molecule": "CC1CCCC(O)C1", "note": "(stereo not shown) [3-methylcyclohexanol]", "values": [{"measurement": "Ratio X2 (Kd menthol / Kd labelled analog)", "setting": "TRPM8 L843V", "value": 1.21}, {"measurement": "Omega(X1/X2)", "setting": "TRPM8 L843V; menthol vs labelled analog", "value": 1.27}, {"measurement": "Coupling Energy", "setting": "TRPM8 L843V; [3]", "value": 0.24, "unit": "kT"}, {"measurement": "Ratio X2 (Kd menthol / Kd labelled analog)", "setting": "TRPM8 V775A", "value": 3.60}, {"measurement": "Omega(X1/X2)", "setting": "TRPM8 V775A; menthol vs labelled analog", "value": 0.43}, {"measurement": "Coupling Energy", "setting": "TRPM8 V775A; [3]", "value": 0.86, "unit": "kT"}, {"measurement": "L (equilibrium constant between closed and open states upon ligand binding), Ave", "setting": "TRPM8 I846V", "value": 5.486}, {"measurement": "Ratio X2 (Kd menthol / Kd labelled analog)", "setting": "TRPM8 I846V", "value": 0.0226}, {"measurement": "concentration–response curve value, ave", "setting": "TRPM8 I846V; 100 microM", "value": 0.2999}, {"measurement": "concentration–response curve value, single recording", "setting": "TRPM8 I846V; 100 microM", "value": "0.4 and 0.341 and 0.2563 and 0.2026"}, {"measurement": "concentration–response curve value, ave", "setting": "TRPM8 I846V; 500 microM", "value": 0.4287}, {"measurement": "concentration–response curve value, single recording", "setting": "TRPM8 I846V; 500 microM", "value": "0.5097 and 0.4021 and 0.4664 and 0.3363"}, {"measurement": "concentration–response curve value, ave", "setting": "TRPM8 I846V; 5000 microM", "value": 0.6797}, {"measurement": "concentration–response curve value, single recording", "setting": "TRPM8 I846V; 5000 microM", "value": "0.6614 and 0.7654 and 0.6405 and 0.6515"}, {"measurement": "concentration–response curve value, ave", "setting": "TRPM8 I846V; 10000 microM", "value": 0.686}, {"measurement": "concentration–response curve value, single recording", "setting": "TRPM8 I846V; 10000 microM", "value": "0.6689 and 0.7334 and 0.6291 and 0.7125"}, {"measurement": "Kd", "setting": "TRPM8 I846V; calculated from concentration–response curves, read-out: Kd, Ave", "value": 5290, "unit": "µM"}, {"measurement": "concentration–response curve value, ave", "setting": "TRPM8 I846V; concentration cell empty", "value": 0.07916}, {"measurement": "Omega(X1/X2)", "setting": "TRPM8 I846V; menthol vs labelled analog", "value": 67.65}, {"measurement": "Coupling Energy", "setting": "TRPM8 I846V; [3]", "value": 4.21, "unit": "kT"}, {"measurement": "Kd", "setting": "TRPM8 I846V; read-out: Kd, single recording", "value": "4560 µM and 1600 µM and 2660 µM and 12400 µM"}, {"measurement": "Ratio X2 (Kd menthol / Kd labelled analog)", "setting": "TRPM8 Y745F", "value": 5.57}, {"measurement": "Omega(X1/X2)", "setting": "TRPM8 Y745F; menthol vs labelled analog", "value": 0.28}, {"measurement": "Coupling Energy", "setting": "TRPM8 Y745F; [3]", "value": 1.29, "unit": "kT"}, {"measurement": "Ratio X2 (Kd menthol / Kd labelled analog)", "setting": "TRPM8 F839A", "value": 0.34}, {"measurement": "Omega(X1/X2)", "setting": "TRPM8 F839A; menthol vs labelled analog", "value": 4.45}, {"measurement": "Coupling Energy", "setting": "TRPM8 F839A; [3]", "value": 1.49, "unit": "kT"}, {"measurement": "Ratio X2 (Kd menthol / Kd labelled analog)", "setting": "TRPM8 L843A", "value": 10.91}, {"measurement": "Omega(X1/X2)", "setting": "TRPM8 L843A; menthol vs labelled analog", "value": 0.14}, {"measurement": "Coupling Energy", "setting": "TRPM8 L843A; [3]", "value": 1.96, "unit": "kT"}, {"measurement": "Ratio X2 (Kd menthol / Kd labelled analog)", "setting": "TRPM8 L843I", "value": 0.32}, {"measurement": "Omega(X1/X2)", "setting": "TRPM8 L843I; menthol vs labelled analog", "value": 4.84}, {"measurement": "Coupling Energy", "setting": "TRPM8 L843I; [3]", "value": 1.58, "unit": "kT"}, {"measurement": "maximum open probability (Po max)", "setting": "wild-type TRPM8 [1]", "value": "much reduced"}, {"measurement": "L (equilibrium constant between closed and open states upon ligand binding), Ave", "setting": "wild-type TRPM8 [2]", "value": 0.1737}, {"measurement": "L, single recording", "setting": "wild-type TRPM8 [2]", "value": "0.1532 and 0.192 and 0.1757"}, {"measurement": "Ratio X1 (Kd menthol / Kd labelled analog)", "setting": "wild-type TRPM8 [2]", "value": 1.53}, {"measurement": "concentration–response curve value, ave", "setting": "wild-type TRPM8 [2]; 100 microM", "value": 0.03758}, {"measurement": "concentration–response curve value, single recording", "setting": "wild-type TRPM8 [2]; 100 microM", "value": 0.03758}, {"measurement": "concentration–response curve value, ave", "setting": "wild-type TRPM8 [2]; 500 microM", "value": 0.06444}, {"measurement": "concentration–response curve value, single recording", "setting": "wild-type TRPM8 [2]; 500 microM", "value": "0.0748 and 0.0637 and 0.05481"}, {"measurement": "concentration–response curve value, ave", "setting": "wild-type TRPM8 [2]; 1000 microM", "value": 0.104}, {"measurement": "concentration–response curve value, single recording", "setting": "wild-type TRPM8 [2]; 1000 microM", "value": "0.09939 and 0.1207 and 0.09185"}, {"measurement": "concentration–response curve value, ave", "setting": "wild-type TRPM8 [2]; 5000 microM", "value": 0.1359}, {"measurement": "concentration–response curve value, single recording", "setting": "wild-type TRPM8 [2]; 5000 microM", "value": "0.1092 and 0.1503 and 0.1483"}, {"measurement": "concentration–response curve value, ave", "setting": "wild-type TRPM8 [2]; 10000 microM", "value": 0.1449}, {"measurement": "concentration–response curve value, single recording", "setting": "wild-type TRPM8 [2]; 10000 microM", "value": "0.1156 and 0.169 and 0.1502"}, {"measurement": "Kd", "setting": "wild-type TRPM8 [2]; calculated from concentration–response curves (EC50 and Po max), read-out: Kd, Ave", "value": 631, "unit": "µM"}, {"measurement": "Kd", "setting": "wild-type TRPM8 [2]; read-out: Kd, single recording", "value": "270 µM and 723 µM and 899 µM"}]}
